Tests used:
[1] = Promoting excretion of 238Pu(IV) in mice by orally administered ligands; type: in vivo; details: of ligand by gavage three minutes after iv ^238Pu(IV); kill at 24 hours
Source text: Animal studies were completed using methods detailed in Radiation Protection Dosimetry, in press, P. W. Durbin et al., "In Vivo Chelation of Am(III), Pu(IV), Np(V) and U(VI) in Mice by TREN-(Me-3,2-HOPO)"; Radiation Protection Dosimetry, 17, No. 1, 1989, p. 351, P. W. Durbin et al., "Removal of ^238Pu(IV) from Mice by Polycatechoylate, -Hydroxamate or -Hydroxypyridinonate Ligands"; Radiation Research, 99, 1984, p. 85, P. W. Durbin et al., "Specific Sequestering Agents for the Actinides ..."; Radiation Research, 99, 1984, p. 106, P. W. Durbin et al., "Removal of Pu and Am from Beagles and Mice ..."; Radiation Research, 81, 1980, p. 170, R. D. Lloyd et al., and P. W. Durbin et al., "Specific Sequestering Agents for the Actinides ...". The foregoing articles are hereby incorporated by reference.
Radionuclides used in the animal studies came from a variety of sources. However, they can be purchased commercially. […]
The novel chelating agents of the present invention and comparative compounds were tested for their effectiveness in promoting excretion of ^238Pu(IV) by oral administration to mice as follows. […] The ^238Pu(IV) in skeleton, soft tissues, and separated excreta was determined by counting the ^234U L x-rays. […]

[2] = In vivo acute toxicity test of injected ligands in mice
Method: The test of acute toxicity of novel and comparative ligands was carried out as follows. Groups of five mice were each given a single i.p. injection of […] of ligand and a day for 10 days or given two i.p. injections of […] in 8 hours. The ligand was dissolved in 0.5 to 1.0 ml of saline at pH 7 to 8. After a period of observation, the mice were killed; selected tissues were removed and fixed for histopathological examination; and unusual findings at autopsy were recorded. […]

[3] = protocol I, 100 µmol kg^-1 x 10 daily i.p., study length 11 d
[4] = protocol I, 100 µmol kg^-1 x 10 daily i.p., study length 21 d
[5] = protocol II, 500 µmol kg^-1 x 2 in 8 h, study length 8 d

Question: Which “Pu removal by oral administration (in words)” value [1] does the source give for `Cn1ccc(C(=O)NCCN(CCNC(=O)c2ccn(C)c(=O)c2O)CCNC(=O)c2ccn(C)c(=O)c2O)c(O)c1=O` [TREN-Me-3,2-HOPO, N,N,N,-Tris[(3-hydroxy-1-methyl-2-oxo-1,2-dihydropyridin-4-yl)carboxamidoethyl]-amine] here?
Answer: The value was “the more effective in both (by oral and injection) cases”.

Question: And the “toxicity (in words)” value ([2]; even at the relatively high dosage of 2x500 µmol/kg in 8 hours)?
Answer: The value was “low toxicity”.

Question: What about the no. of survivors [2, 3] of the same molecule?
Answer: Its no. of survivors is 5.

Question: And the “percent control mean + SD: body weight” value [2, 3]?
Answer: Its value is 102 ± 1 percent control.

Question: And the “percent control mean + SD: plasma urea N” value [2, 3]?
Answer: The value was 112 ± 10 percent control.

Question: And the no. of survivors [2, 4]?
Answer: Its no. of survivors is 5.

Question: What about the “percent control mean + SD: body weight” value [2, 4] of the same molecule?
Answer: The value was 106 ± 4 percent control.

Question: And the “percent control mean + SD: plasma urea N” value [2, 4]?
Answer: The value was 120 ± 9 percent control.

Question: What about the no. of survivors [2, 5] of the same molecule?
Answer: The no. of survivors was 19.

Question: And the “percent control mean + SD: body weight” value [2, 5]?
Answer: The value was 101 ± 4 percent control.

Question: What about the “percent control mean + SD: plasma urea N” value [2, 5] of the same molecule?
Answer: The value was 119 ± 15 percent control.
